The test system of assay [1] is HEK293. In words: cells. The class given is functional, cell-based. To be noted: Homo sapiens.
Assay [2] deals with HEK293. Put plainly: NOD2 signaling inhibitors in MDP-stimulated cells, cell-based, uHTS, luminescence (AID 2001). The class given is functional. The settings on record: Homo sapiens.
Assay [3] concerns the target Nucleotide-binding oligomerization domain-containing protein 2 (Homo sapiens, UniProt Q9HC29). In words: NOD2 signaling inhibitors, cell-based, luminescence, uHTS, HEK293 (AID 1566). In kind it is functional.
Assay [4] concerns HEK293. Put plainly: NOD1 signaling inhibitors, primary screen, cell-based, luminescence, uHTS (AID 1578). The class given is functional. The settings on record: Homo sapiens.
Assay [5] relates to HEK293. Put plainly: cells. The class given is functional, cell-based. The settings on record: Homo sapiens. This is another data set of the same source.
Assay [6] has as its system HEK293. In words: cells. The class given is functional, cell-based. To be noted: Homo sapiens. The source holds these as a separate data set.
For another assay, the target named is Mu-type opioid receptor (Homo sapiens, UniProt P35372). Put plainly: SAR Analysis of Antagonists of the MOR Receptor using an Image-Based Assay - Set 3. [Related pubchem assays (depositor defined):AID1777, AID1785, AID1786, AID1966, AID2133, AID2136, AID2284, AID2285, AID2420]. The class given is functional.
Mu-type opioid receptor, sequence (P35372 whole entry): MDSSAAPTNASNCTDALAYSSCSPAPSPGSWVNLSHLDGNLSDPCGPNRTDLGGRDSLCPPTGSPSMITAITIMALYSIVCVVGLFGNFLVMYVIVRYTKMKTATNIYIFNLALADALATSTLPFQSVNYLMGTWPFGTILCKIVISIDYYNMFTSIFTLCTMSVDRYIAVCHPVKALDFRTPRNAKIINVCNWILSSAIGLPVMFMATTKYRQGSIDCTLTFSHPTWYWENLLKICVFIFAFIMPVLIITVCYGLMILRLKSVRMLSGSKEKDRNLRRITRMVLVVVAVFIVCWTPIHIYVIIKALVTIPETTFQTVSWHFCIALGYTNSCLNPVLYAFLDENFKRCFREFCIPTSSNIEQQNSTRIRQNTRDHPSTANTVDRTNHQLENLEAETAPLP
Assay [7] deals with T1, Kappa-type opioid receptor (Homo sapiens, UniProt P41145). In words: SAR analysis of small molecule antagonists of the kappa opioid receptor via a luminescent beta-arrestin assay - Set 3. [Related pubchem assays (depositor defined):AID1777, AID1778, AID1785, AID1786, AID1966, AID2133, AID2136, AID2285, AID2495]. In kind it is functional.
T1 sequence (P41145 whole entry): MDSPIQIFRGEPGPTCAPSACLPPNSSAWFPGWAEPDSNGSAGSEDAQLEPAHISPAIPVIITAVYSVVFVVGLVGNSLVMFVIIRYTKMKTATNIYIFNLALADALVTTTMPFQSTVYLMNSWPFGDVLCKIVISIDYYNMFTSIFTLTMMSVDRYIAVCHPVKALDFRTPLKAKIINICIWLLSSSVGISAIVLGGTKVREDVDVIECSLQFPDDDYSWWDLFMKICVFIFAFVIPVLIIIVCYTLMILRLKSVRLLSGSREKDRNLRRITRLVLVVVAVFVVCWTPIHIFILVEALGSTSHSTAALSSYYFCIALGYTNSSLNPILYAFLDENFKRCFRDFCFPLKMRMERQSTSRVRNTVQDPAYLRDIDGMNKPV
The target of assay [8] is Delta-type opioid receptor (Homo sapiens, UniProt P41143). In words: SAR Analysis of Antagonists of the DOR Receptor using an Image-Based Assay - Set 3. [Related pubchem assays (depositor defined):AID1777, AID1785]. In kind it is functional.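 Note: U2OS cells expressing DOR1 and beta-arrestin GFP stimulated with 100 nM SNC80; imaging of GFP-tagged beta-arrestin moving into spots after receptor activation.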
Delta-type opioid receptor, sequence (P41143 whole entry): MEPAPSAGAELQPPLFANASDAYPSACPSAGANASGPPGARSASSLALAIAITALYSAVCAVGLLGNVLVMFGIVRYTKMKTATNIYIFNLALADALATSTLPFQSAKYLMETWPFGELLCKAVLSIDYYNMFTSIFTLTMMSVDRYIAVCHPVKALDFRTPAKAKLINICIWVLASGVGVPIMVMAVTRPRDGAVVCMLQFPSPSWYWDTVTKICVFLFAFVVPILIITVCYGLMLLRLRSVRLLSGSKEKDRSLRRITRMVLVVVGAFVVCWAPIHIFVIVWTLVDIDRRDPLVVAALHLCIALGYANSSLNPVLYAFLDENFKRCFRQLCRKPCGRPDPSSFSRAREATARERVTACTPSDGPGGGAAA
Assay [9] concerns the target T1, Kappa-type opioid receptor. In words: SAR analysis of Antagonists of the Kappa Opioid Receptor (KOR) using an Image-Based Assay - Set 4. [Related pubchem assays (depositor defined):AID1777, AID1785]. In kind it is functional.
Assay [10] concerns the target T2, Runt-related transcription factor 1/Core-binding factor subunit beta (Homo sapiens, UniProt Q01196+Q13951). In words: inhibitors of RUNX1 Runt–CBFb-SMMHC binding, biochemical, TR-FRET (AID 1438). In kind it is protein assay. A general note: In TR-FRET formats the signal depends on donor and acceptor labels being close together.
Assay [11] concerns the target T3, Fatty acid synthase (Homo sapiens, UniProt P49327). Put plainly: FAS thioesterase domain inhibitors, dose response, biochemical, endpoint fluorescence intensity, uHTS hits (AID 624327).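 Note: fluorescence from hydrolysis of an O-methyl fluorescein acyl ester substrate by the enzyme.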 In kind it is functional.
For assay [12], the target named is T3, Fatty acid synthase. In words: FAS thioesterase domain inhibitors, dose response, biochemical, kinetic fluorescence intensity (AID 624326).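 Note: rate of fluorescence rise from hydrolysis of a fluorogenic O-methyl fluorescein ester substrate.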 The class given is functional.
Assay [13] deals with T2, Runt-related transcription factor 1/Core-binding factor subunit beta. In words: inhibitors of RUNX1 Runt–CBFb-SMMHC binding, primary screen, biochemical, FRET, Cerulean-Runt, Venus-CBFb-SMMHC, uHTS (AID 1434).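 Note: partner is the CBFb-SMMHC leukemia fusion protein rather than wild-type CBFb.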 In kind it is protein assay.
The target in the next assay is T4, Coagulation factor XII (Homo sapiens, UniProt P00748).
T4 sequence (P00748 whole entry): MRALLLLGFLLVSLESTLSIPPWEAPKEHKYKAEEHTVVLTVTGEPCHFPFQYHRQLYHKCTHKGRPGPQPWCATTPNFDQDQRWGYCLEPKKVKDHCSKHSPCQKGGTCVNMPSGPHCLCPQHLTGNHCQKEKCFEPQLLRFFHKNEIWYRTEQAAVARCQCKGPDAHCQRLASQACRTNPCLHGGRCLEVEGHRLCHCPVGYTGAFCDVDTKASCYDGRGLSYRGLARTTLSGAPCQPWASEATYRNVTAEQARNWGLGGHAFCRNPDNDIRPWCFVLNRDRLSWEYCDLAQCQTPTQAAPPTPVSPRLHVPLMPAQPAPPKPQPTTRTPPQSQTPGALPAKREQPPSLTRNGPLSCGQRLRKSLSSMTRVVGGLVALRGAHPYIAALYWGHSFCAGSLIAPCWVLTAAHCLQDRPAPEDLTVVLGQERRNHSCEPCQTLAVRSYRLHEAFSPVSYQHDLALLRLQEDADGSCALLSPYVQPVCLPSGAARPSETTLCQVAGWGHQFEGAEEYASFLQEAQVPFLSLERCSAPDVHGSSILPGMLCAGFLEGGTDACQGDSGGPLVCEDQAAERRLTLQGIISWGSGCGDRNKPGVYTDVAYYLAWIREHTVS
Put plainly: FXIIa inhibitor potency, concentration-response, biochemical (AID 716). The class given is functional.

In another assay the target is Cytochrome P450 2C19 (Homo sapiens, UniProt P33261). Put plainly: Cytochrome panel assay with activity outcomes. Panel member name: p450-cyp2c19 Compounds with AC50 equal or less than 10 uM are considered active. In kind it is functional. The settings on record: read-out: AC50.
Cytochrome P450 2C19, sequence (P33261 whole entry): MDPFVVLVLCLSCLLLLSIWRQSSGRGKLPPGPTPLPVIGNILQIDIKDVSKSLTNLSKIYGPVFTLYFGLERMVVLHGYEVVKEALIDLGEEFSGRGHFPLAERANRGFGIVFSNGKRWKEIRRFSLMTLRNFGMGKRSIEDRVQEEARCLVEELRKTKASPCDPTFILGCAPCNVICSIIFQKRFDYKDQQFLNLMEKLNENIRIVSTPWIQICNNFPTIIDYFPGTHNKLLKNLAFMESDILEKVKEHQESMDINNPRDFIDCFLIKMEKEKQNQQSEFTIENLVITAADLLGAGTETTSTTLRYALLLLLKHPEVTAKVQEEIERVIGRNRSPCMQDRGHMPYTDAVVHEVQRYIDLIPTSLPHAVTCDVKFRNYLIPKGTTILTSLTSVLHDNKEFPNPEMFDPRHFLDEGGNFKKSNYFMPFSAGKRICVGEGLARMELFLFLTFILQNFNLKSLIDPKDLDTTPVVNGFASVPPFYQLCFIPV
A further assay has as its target Integrin alpha-L (Mus musculus, UniProt P24063). In words: modulators of CD8 T cell-vesicle binding, dose response, powder samples, mouse 2C CD8+ cells (AID 504565). The class given is functional.
Assay [14] can be described thus: cells. In kind it is functional, cell-based.
A further assay deals with T-cell. Put plainly: inhibitors of CD8+ T cell–vesicle binding, dose response, mouse 2C CD8+ T cells, flow cytometry (AID 485284). The class given is functional. (Flow cytometry measures light scatter and fluorescence of single cells or particles in a stream.)
Assay [15] is described as follows: cells. In kind it is functional, cell-based. The source holds these as a separate data set.

The results in this text go back to ChEMBL document CHEMBL1201862, “PubChem BioAssay data set” (2004).

Calls of active or inactive are those of the source.

T3 sequence (P49327 whole entry, the tested form may be a part): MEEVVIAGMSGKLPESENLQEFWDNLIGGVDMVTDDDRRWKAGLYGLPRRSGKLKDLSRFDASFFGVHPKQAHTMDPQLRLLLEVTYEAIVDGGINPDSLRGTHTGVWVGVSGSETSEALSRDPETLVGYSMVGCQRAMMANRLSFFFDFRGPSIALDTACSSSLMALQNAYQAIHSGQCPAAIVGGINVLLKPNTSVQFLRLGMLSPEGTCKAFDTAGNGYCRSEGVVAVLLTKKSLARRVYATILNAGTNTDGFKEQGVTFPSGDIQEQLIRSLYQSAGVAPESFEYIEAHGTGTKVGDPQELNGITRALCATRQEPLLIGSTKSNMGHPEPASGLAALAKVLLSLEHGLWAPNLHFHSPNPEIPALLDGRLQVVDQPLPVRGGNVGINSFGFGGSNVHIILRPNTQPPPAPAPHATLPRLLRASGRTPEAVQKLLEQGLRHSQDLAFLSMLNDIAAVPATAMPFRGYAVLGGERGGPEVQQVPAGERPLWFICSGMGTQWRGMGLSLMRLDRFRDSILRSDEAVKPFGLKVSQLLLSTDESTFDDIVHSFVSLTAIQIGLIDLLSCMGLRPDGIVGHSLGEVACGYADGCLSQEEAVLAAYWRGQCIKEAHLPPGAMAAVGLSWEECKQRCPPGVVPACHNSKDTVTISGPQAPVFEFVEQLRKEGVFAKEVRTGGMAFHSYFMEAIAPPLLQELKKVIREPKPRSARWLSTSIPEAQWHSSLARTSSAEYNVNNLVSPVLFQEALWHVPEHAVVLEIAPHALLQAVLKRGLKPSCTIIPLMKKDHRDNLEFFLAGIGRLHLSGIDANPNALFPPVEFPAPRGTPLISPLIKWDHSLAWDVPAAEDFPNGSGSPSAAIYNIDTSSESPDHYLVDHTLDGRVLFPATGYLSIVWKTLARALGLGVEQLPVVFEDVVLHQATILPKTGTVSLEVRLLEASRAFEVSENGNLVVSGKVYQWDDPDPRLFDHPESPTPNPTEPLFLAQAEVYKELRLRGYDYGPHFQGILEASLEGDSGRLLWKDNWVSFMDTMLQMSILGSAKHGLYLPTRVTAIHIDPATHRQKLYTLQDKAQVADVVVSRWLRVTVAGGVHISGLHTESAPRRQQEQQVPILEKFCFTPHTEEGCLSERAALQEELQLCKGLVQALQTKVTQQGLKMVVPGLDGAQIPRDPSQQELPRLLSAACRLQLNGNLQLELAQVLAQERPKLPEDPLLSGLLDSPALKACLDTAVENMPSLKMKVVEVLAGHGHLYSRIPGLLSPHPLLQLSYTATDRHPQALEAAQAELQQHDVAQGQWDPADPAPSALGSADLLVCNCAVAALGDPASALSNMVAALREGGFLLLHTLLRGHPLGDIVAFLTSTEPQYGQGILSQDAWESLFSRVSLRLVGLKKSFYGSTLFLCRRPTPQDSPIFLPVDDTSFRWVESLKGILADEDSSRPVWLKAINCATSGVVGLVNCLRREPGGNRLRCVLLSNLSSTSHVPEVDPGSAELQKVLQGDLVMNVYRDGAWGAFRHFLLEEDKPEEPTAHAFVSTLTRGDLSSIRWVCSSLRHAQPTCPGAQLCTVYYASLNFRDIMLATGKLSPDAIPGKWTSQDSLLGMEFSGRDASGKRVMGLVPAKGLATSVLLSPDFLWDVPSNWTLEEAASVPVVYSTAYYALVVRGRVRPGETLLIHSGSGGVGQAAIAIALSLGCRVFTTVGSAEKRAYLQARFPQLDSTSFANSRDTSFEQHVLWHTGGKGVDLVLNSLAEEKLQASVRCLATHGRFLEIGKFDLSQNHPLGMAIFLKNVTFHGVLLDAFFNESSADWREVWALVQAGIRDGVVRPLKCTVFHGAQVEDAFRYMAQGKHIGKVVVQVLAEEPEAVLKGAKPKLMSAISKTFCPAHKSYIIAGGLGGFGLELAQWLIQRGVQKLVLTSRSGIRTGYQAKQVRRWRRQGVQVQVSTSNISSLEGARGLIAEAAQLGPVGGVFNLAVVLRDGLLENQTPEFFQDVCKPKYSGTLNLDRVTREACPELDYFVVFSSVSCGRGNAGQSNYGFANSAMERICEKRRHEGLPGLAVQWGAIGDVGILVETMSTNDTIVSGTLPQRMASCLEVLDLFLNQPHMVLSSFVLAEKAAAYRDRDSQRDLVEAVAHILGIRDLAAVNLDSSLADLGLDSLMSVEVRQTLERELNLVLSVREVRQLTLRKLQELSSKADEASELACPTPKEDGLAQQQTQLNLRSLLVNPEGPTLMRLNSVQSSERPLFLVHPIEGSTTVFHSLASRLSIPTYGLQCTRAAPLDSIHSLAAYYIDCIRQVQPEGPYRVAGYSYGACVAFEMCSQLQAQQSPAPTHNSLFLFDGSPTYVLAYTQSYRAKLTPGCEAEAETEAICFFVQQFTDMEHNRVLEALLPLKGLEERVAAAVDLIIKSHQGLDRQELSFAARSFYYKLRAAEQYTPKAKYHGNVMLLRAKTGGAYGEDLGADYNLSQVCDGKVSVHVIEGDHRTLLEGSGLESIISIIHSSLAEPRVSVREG
T2 sequence (Q01196 whole entry, the tested form may be a part): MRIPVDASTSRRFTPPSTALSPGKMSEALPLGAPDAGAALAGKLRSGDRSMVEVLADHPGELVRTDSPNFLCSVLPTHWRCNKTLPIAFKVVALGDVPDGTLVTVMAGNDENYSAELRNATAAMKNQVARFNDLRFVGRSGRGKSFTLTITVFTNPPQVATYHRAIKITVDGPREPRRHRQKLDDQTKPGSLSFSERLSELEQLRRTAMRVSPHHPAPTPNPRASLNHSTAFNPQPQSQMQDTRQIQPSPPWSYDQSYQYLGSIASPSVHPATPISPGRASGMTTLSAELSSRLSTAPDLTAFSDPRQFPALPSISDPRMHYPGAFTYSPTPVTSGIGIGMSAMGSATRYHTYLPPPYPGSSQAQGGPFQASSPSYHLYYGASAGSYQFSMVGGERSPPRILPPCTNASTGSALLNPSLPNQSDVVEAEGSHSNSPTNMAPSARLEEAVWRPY
T2 sequence (Q13951 whole entry, the tested form may be a part): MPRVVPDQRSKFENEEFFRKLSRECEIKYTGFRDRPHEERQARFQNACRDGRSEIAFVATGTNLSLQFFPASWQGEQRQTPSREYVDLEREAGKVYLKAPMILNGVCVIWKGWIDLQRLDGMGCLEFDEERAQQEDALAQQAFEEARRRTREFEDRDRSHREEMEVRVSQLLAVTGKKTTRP

For the molecule `Cc1c(C(=O)N2CCN(c3ccc(F)cc3)CC2)sc2ncnc(N3CCN(c4ccccn4)CC3)c12`, the half-maximal inhibitory concentration (IC50) – broadly, the concentration that inhibits the measured activity by half – is 11.9 µM (active) in the assay with HEK293 [1], 7.42 µM (inactive) in the assay on HEK293 [2], 4.81 µM (active) in the assay with HEK293 [5] and 16.8 µM (active) in the assay with HEK293 [6]. In addition, the EC50 – broadly, the concentration giving half of the maximal effect – in [3] was 4.24 µM (active); in the assay with HEK293 [4], 5.71 µM (active).

With `COc1ccc(N2CCN(CCCNC(=O)Cn3c(=O)c4cccn4c4cccnc43)CC2)c(OC)c1`, the IC50 on Mu-type opioid receptor is 10.8 µM (inactive); in [7], 2.65 µM (active); in [8] it was > 32 µM (inactive); in [9], 0.49 µM (active).

With `Cc1cccn2c(=O)c(/C=C(\C#N)C(N)=O)c(N3CCN(Cc4ccc5c(c4)OCO5)CC3)nc12`, the IC50 in [10] is > 100 µM (inactive); on Fatty acid synthase [11] it was 7.79 µM (active); at Fatty acid synthase [12] it was 9.39 µM (active); in assay [13], > 100 µM (inactive).

`CCOC(=O)N1CCN(C(=O)c2ccc(Cl)c(S(=O)(=O)N3CCOCC3)c2)CC1`: at Coagulation factor XII, the IC50 was > 50 µM (inactive). Further, on Cytochrome P450 2C19, the AC50 (as a rule, the concentration at which the activity in the assay is half-maximal) is 39.8 µM (inconclusive).

For `CCOCC(=O)Nc1ccc(S(=O)(=O)N2CCC(c3nc4ccccc4[nH]3)CC2)cc1`, the EC50 on Integrin alpha-L was 0.246 µM (active); in “cells [14]” it was > 350 µM (not active); in the assay on T-cell, 1.37 µM (active); in “cells [15]”, > 350 µM (not active).
